Patent US8729047B2, “Compositions for inhibiting redox-sensitive GTPases” (Board of Regents, The University of Texas System, priority 2010, dated 2014)

Target: RhoC (Homo sapiens, UniProt P08134)
Experiment: Co-IP mass spectrometry of thioguanine nucleotide disulfide adduct
Assay type: cell-based
Design: endogenous in cells; host or cells: SUM149, SUM102, SW480, HCCLM3 (endogenous); HME-RhoC (transfected with wild type RhoC)
Description: FIG. 6. Detection of unusual 6-TGNP adduct from HME-RhoC cells. […] A monoclonal RhoC antibody (Biocompare, South San Francisco, Calif.) and a “Mammalian Co-Immunoprecipitation Kit” (Pierce) were used for the analyses of the RhoC 6-TGNP interaction in HME-RhoC cells. The immunoprecipitated RhoC sample was suspended in 50% methanol:0.1% formic acid. The protein portion and RhoC-released nucleotide were separated by a brief centrifugation (3000×g for 5 min). The protein portion from the immunoprecipitated RhoC was resuspended in the assay buffer (pH 7.5), digested with trypsin for 10 h, and analyzed with MALDI-TOF tandem mass spectrometry. The MALDI-TOF peak at 1476.6 Da represents peptide-6-TGDP adduct; TC^20LLIVFSK-6-TGDP (SEQ ID NO:4).
FIG. 15. Detection of unusual 6-TGNP adduct from SUM and HME-RhoC cells. The ESI-MS and MS/MS methods to detect and identify a chemically modified RhoC residue are described elsewhere herein. […] The left and right columns, respectively, denote any of the RhoC samples taken from SUM and HME cells. As indicated, a mixture of samples taken from untreated SUM149 and SUM102 cells was used as a control for the experiment shown in the left column. For the right column, a mixture of samples taken from HME-RhoC and […] cells was used as a control. (B) A MS/MS analysis was performed with the ESI-MS sample of 6-TG-treated SUM149 cells to identify a biomolecule that have a mass of 1481.6 Da. […]
Cell lysates in an extraction buffer were incubated with a monoclonal anti-RhoC antibody precoupled to glutathione-agarose beads. […] The protein portion from the immunoprecipitated RhoC was resuspended in a buffer containing 1 mM EDTA and 0.1 mM DTPA in 50 mM TrisHCl (pH 7.4), then digested with trypsin for 10 h, and analyzed with electrospray mass spectrometry (ESI-MS) and tandem mass spectrometry (MS/MS) in the positive ion mode ([molecular mass+H]^+).

Chain of RhoC (P08134 whole entry): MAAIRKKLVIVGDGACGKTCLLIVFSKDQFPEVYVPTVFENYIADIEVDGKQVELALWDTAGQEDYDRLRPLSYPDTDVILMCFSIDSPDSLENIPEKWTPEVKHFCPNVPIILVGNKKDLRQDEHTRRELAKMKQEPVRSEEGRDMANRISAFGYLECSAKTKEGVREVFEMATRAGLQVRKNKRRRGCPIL

Nc1nc2nc[nH]c2c(=S)[nH]1 [6-TG, 6-thioguanine]
peak assigned to RhoC-6-TGDP adduct (6-TG in the presence of a NO donor): increased | peptide-6-TGDP adduct (TC20LLIVFSK-6-TGDP) by MALDI-TOF (HME-RhoC cells, 6-TG 1 μM every 48 h, 5 days, FIG. 6): detected | RhoC-derived peptide-6-TGDP disulfide adduct mass peak by ESI-MS (co-IPed RhoC from SUM149 and HME-RhoC cells treated with 6-TG, FIG. 15A): commonly exhibited
